Source: patent publication US9695155B2, “Herbicidal substituted pyrimidinyloxy benzene compounds” (E. I. DU PONT DE NEMOURS AND COMPANY, priority 2013, dated 2017)

How the values were obtained:
[1] = tested on: morningglory; assay: Test A postemergence; format: in vivo, Ipomoea spp.
Summary of the method: (§1)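 Visual 0–100 rating (100 = complete control) taken about 10 d post-treatment relative to untreated checks. Preemergence: directed soil spray on sown loam/sand pots. Postemergence: seedlings 2–10 cm, 1–2 leaf. Non-phytotoxic solvent formulation with surfactant.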

[2] = tested on: barnyardgrass; assay: Test B flooded paddy test; format: in vivo, Echinochloa crus-galli; conditions: Flood, 250 g ai/ha; 0 to 100 scale where 0 is no effect and 100 is complete control
Summary of the method: (§2)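 Visual ratings on a 0 to 100 scale, where 100 means complete control, compared treated plants with controls after 13 to 15 days in a greenhouse. Treatment went into paddy water 3 cm deep over the soil, applied to plants at the 2-leaf stage.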

[3] = tested on: corn; assay: Test A preemergence; format: in vivo, Zea mays
Summary of the method: as §1

[4] = tested on: large (Lg) crabgrass; assay: Test A postemergence; format: in vivo, Digitaria sanguinalis
Summary of the method: as §1

[5] = tested on: barnyardgrass; assay: Test A postemergence; format: in vivo, Echinochloa crus-galli
Summary of the method: as §1

[6] = tested on: velvetleaf; assay: Test A preemergence; format: in vivo, Abutilon theophrasti
Summary of the method: as §1

[7] = tested on: rice; assay: Test B flooded paddy test; format: in vivo, Oryza sativa; conditions: Flood, 250 g ai/ha; 0 to 100 scale where 0 is no effect and 100 is complete control
Summary of the method: as §2

[8] = tested on: pigweed; assay: Test A postemergence; format: in vivo, Amaranthus retroflexus
Summary of the method: as §1

[9] = tested on: pigweed; assay: Test A preemergence; format: in vivo, Amaranthus retroflexus
Summary of the method: as §1

[10] = tested on: sedge, umbrella; assay: Test B flooded paddy test; format: in vivo, Cyperus difformis; conditions: Flood, 250 g ai/ha; 0 to 100 scale where 0 is no effect and 100 is complete control
Summary of the method: as §2

[11] = tested on: wheat; assay: Test A postemergence; format: in vivo, Triticum aestivum
Summary of the method: as §1

[12] = tested on: wheat; assay: Test A preemergence; format: in vivo, Triticum aestivum
Summary of the method: as §1

[13] = tested on: velvetleaf; assay: Test A postemergence; format: in vivo, Abutilon theophrasti
Summary of the method: as §1

[14] = tested on: Heteranthera limosa; assay: Test B flooded paddy test; format: in vivo; conditions: Flood, 250 g ai/ha; 0 to 100 scale where 0 is no effect and 100 is complete control
Summary of the method: as §2

[15] = tested on: corn; assay: Test A postemergence; format: in vivo, Zea mays
Summary of the method: as §1

[16] = tested on: large (Lg) crabgrass; assay: Test A preemergence; format: in vivo, Digitaria sanguinalis
Summary of the method: as §1

[17] = tested on: giant foxtail; assay: Test A postemergence; format: in vivo, Setaria faberii
Summary of the method: as §1

[18] = tested on: morningglory; assay: Test A preemergence; format: in vivo, Ipomoea spp.
Summary of the method: as §1

[19] = tested on: barnyardgrass; assay: Test A preemergence; format: in vivo, Echinochloa crus-galli
Summary of the method: as §1

[20] = tested on: giant foxtail; assay: Test A preemergence; format: in vivo, Setaria faberii
Summary of the method: as §1

[21] = 125 g ai/ha, 0 to 100 scale where 0 is no effect and 100 is complete control
[22] = 500 g ai/ha, 0 to 100 scale, 0 no effect, 100 complete control
[23] = 500 g ai/ha, 0 to 100 scale, 0 no effect, 100 complete control, approx. 10 days
[24] = 1000 g ai/ha, 0 to 100 scale, 0 no effect, 100 complete control
[25] = 1000 g ai/ha, 0 to 100 scale, 0 no effect, 100 complete control, approx. 10 days
[26] = 500 g ai/ha, 0 to 100 scale where 0 is no effect and 100 is complete control

C=C(C)c1cnn(-c2ccccc2Oc2ncc(Cl)cn2)c1 [Compound 32]
Plant response rating, Morningglory [1, 21]: 0
Plant response rating, Morningglory [1, 22]: 0
Plant response rating, Barnyardgrass [2]: 0
Plant response rating, Corn [3, 21]: 0
Corn plant response rating [3, 23]: 0
Plant response rating, Crabgrass, Large [4, 21]: 50
Plant response rating, Crabgrass, Large [4, 22]: 50
Plant response rating, Barnyardgrass [5, 21]: 0
Plant response rating, Barnyardgrass [5, 22]: 20
Plant response rating, Velvetleaf [6, 21]: 10
Velvetleaf plant response rating [6, 23]: 70
Plant response rating, Rice [7]: 15
Plant response rating, Pigweed [8, 21]: 50
Plant response rating, Pigweed [8, 22]: 70
Plant response rating, Pigweed [9, 21]: 0
Pigweed plant response rating [9, 23]: 40
Plant response rating, Sedge, Umbrella [10]: 0
Plant response rating, Wheat [11, 21]: 0
Plant response rating, Wheat [11, 22]: 0
Plant response rating, Wheat [12, 21]: 0
Wheat plant response rating [12, 23]: 0
Plant response rating, Velvetleaf [13, 21]: 80
Plant response rating, Velvetleaf [13, 22]: 100
Plant response rating, Ducksalad [14]: 0
Plant response rating, Corn [15, 21]: 0
Plant response rating, Corn [15, 22]: 20
Plant response rating, Crabgrass, Large [16, 21]: 0
Crabgrass, Large plant response rating [16, 23]: 60
Plant response rating, Foxtail, Giant [17, 21]: 0
Plant response rating, Foxtail, Giant [17, 22]: 30
Plant response rating, Morningglory [18, 21]: 0
Morningglory plant response rating [18, 23]: 0
Plant response rating, Barnyardgrass [19, 21]: 0
Barnyardgrass plant response rating [19, 23]: 60
Plant response rating, Foxtail, Giant [20, 21]: 0
Foxtail, Giant plant response rating [20, 23]: 70

CC(=O)c1cn(-c2c(Br)cccc2Oc2ncc(Cl)cn2)nn1 [Compound 280]
Plant response rating, Morningglory [1, 24]: 30
Plant response rating, Barnyardgrass [2]: 10
Corn plant response rating [3, 25]: 50
Plant response rating, Crabgrass, Large [4, 24]: 90
Plant response rating, Barnyardgrass [5, 24]: 90
Velvetleaf plant response rating [6, 25]: 100
Plant response rating, Rice [7]: 10
Plant response rating, Pigweed [8, 24]: 100
Pigweed plant response rating [9, 25]: 100
Plant response rating, Sedge, Umbrella [10]: 10
Plant response rating, Wheat [11, 24]: 40
Wheat plant response rating [12, 25]: 40
Plant response rating, Velvetleaf [13, 24]: 90
Plant response rating, Ducksalad [14]: 30
Plant response rating, Corn [15, 24]: 50
Crabgrass, Large plant response rating [16, 25]: 100
Plant response rating, Foxtail, Giant [17, 24]: 90
Morningglory plant response rating [18, 25]: 0
Barnyardgrass plant response rating [19, 25]: 100
Foxtail, Giant plant response rating [20, 25]: 100

Fc1cc(Oc2ncc(Cl)cn2)c(-n2cc(Br)cn2)cc1F [Compound 196]
Morningglory plant response rating [1, 21]: 20
Plant response rating, Morningglory [1, 26]: 80
Plant response rating, Barnyardgrass [2]: 20
Corn plant response rating (0 to 100 scale) ([3]; 125 g ai/ha): 0
Corn plant response rating [3, 26]: 0
Crabgrass, Large plant response rating [4, 21]: 30
Plant response rating, Crabgrass, Large [4, 26]: 90
Barnyardgrass plant response rating [5, 21]: 10
Plant response rating, Barnyardgrass [5, 26]: 50
Velvetleaf plant response rating (0 to 100 scale) ([6]; 125 g ai/ha): 20
Velvetleaf plant response rating [6, 26]: 40
Plant response rating, Rice [7]: 0
Pigweed plant response rating [8, 21]: 100
Plant response rating, Pigweed [8, 26]: 100
Pigweed plant response rating (0 to 100 scale) ([9]; 125 g ai/ha): 90
Pigweed plant response rating [9, 26]: 100
Plant response rating, Sedge, Umbrella [10]: 70
Wheat plant response rating [11, 21]: 0
Plant response rating, Wheat [11, 26]: 10
Wheat plant response rating (0 to 100 scale) ([12]; 125 g ai/ha): 0
Wheat plant response rating [12, 26]: 0
Velvetleaf plant response rating [13, 21]: 100
Plant response rating, Velvetleaf [13, 26]: 100
Plant response rating, Ducksalad [14]: 85
Corn plant response rating [15, 21]: 10
Plant response rating, Corn [15, 26]: 40
Crabgrass, Large plant response rating (0 to 100 scale) ([16]; 125 g ai/ha): 60
Crabgrass, Large plant response rating [16, 26]: 100
Foxtail, Giant plant response rating [17, 21]: 30
Plant response rating, Foxtail, Giant [17, 26]: 80
Morningglory plant response rating (0 to 100 scale) ([18]; 125 g ai/ha): 0
Morningglory plant response rating [18, 26]: 0
Barnyardgrass plant response rating (0 to 100 scale, 0 is no effect, 100 is complete control) ([19]; 125 g ai/ha): 0
Barnyardgrass plant response rating [19, 26]: 40
Foxtail, Giant plant response rating (0 to 100 scale) ([20]; 125 g ai/ha): 50
Foxtail, Giant plant response rating [20, 26]: 90

Cc1cnn(-c2c(C#N)cccc2Oc2ncc(Cl)cn2)c1 [Compound 95]
Plant response rating, Morningglory [1, 21]: 60
Plant response rating, Morningglory [1, 26]: 90
Plant response rating, Barnyardgrass [2]: 0
Plant response rating, Corn [3, 21]: 0
Corn plant response rating [3, 23]: 40
Plant response rating, Crabgrass, Large [4, 21]: 40
Plant response rating, Crabgrass, Large [4, 26]: 90
Plant response rating, Barnyardgrass [5, 21]: 50
Plant response rating, Barnyardgrass [5, 26]: 80
Plant response rating, Velvetleaf [6, 21]: 90
Plant response rating, Rice [7]: 0
Plant response rating, Pigweed [8, 21]: 100
Plant response rating, Pigweed [8, 26]: 100
Plant response rating, Pigweed [9, 21]: 90
Pigweed plant response rating [9, 23]: 100
Plant response rating, Sedge, Umbrella [10]: 50
Plant response rating, Wheat [11, 21]: 0
Plant response rating, Wheat [11, 26]: 40
Plant response rating, Wheat [12, 21]: 0
Plant response rating, Velvetleaf [13, 21]: 70
Plant response rating, Velvetleaf [13, 26]: 100
Plant response rating, Ducksalad [14]: 40
Plant response rating, Corn [15, 21]: 10
Plant response rating, Corn [15, 26]: 70
Plant response rating, Crabgrass, Large [16, 21]: 100
Crabgrass, Large plant response rating [16, 23]: 100
Plant response rating, Foxtail, Giant [17, 21]: 40
Plant response rating, Foxtail, Giant [17, 26]: 80
Plant response rating, Morningglory [18, 21]: 50
Morningglory plant response rating [18, 23]: 100
Plant response rating, Barnyardgrass [19, 21]: 50
Barnyardgrass plant response rating [19, 23]: 100
Plant response rating, Foxtail, Giant [20, 21]: 100
Foxtail, Giant plant response rating [20, 23]: 100

Clc1cnc(Oc2cc(Cl)ccc2-n2cc(Br)cn2)nc1 [Compound 51]
Plant response rating, Morningglory [1, 21]: 10
Plant response rating, Morningglory [1, 22]: 20
Plant response rating, Barnyardgrass [2]: 0
Plant response rating, Corn [3, 21]: 0
Corn plant response rating [3, 23]: 0
Plant response rating, Crabgrass, Large [4, 21]: 0
Plant response rating, Crabgrass, Large [4, 22]: 20
Plant response rating, Barnyardgrass [5, 21]: 0
Plant response rating, Barnyardgrass [5, 22]: 10
Plant response rating, Velvetleaf [6, 21]: 0
Velvetleaf plant response rating [6, 23]: 0
Plant response rating, Rice [7]: 0
Plant response rating, Pigweed [8, 21]: 30
Plant response rating, Pigweed [8, 22]: 70
Plant response rating, Pigweed [9, 21]: 10
Pigweed plant response rating [9, 23]: 80
Plant response rating, Sedge, Umbrella [10]: 65
Plant response rating, Wheat [11, 21]: 0
Plant response rating, Wheat [11, 22]: 0
Plant response rating, Wheat [12, 21]: 0
Wheat plant response rating [12, 23]: 0
Plant response rating, Velvetleaf [13, 21]: 50
Plant response rating, Velvetleaf [13, 22]: 60
Plant response rating, Ducksalad [14]: 40
Plant response rating, Corn [15, 21]: 0
Plant response rating, Corn [15, 22]: 20
Plant response rating, Crabgrass, Large [16, 21]: 40
Crabgrass, Large plant response rating [16, 23]: 90
Plant response rating, Foxtail, Giant [17, 21]: 0
Plant response rating, Foxtail, Giant [17, 22]: 10
Plant response rating, Morningglory [18, 21]: 0
Morningglory plant response rating [18, 23]: 0
Plant response rating, Barnyardgrass [19, 21]: 20
Barnyardgrass plant response rating [19, 23]: 30
Plant response rating, Foxtail, Giant [20, 21]: 20
Foxtail, Giant plant response rating [20, 23]: 80
